# Results as given in patent US7732604B2, “Triazolopyrazine derivatives” (Pfizer Inc., priority 2006, dated 2010).
# Where a name gives a salt, the structure may show the parent alone.
# Target: T1, HGFR (Homo sapiens, UniProt P08581)
# T1 construct: purchased Upstate 14-526
# Experiment: HGFR continuous-coupled spectrophotometric assay (tyrosine kinase activity on Met-2 substrate peptide)
# Format: biochemical
# Conditions: HGFR 50 nM, Met-2 peptide 0.5 mM, ATP 300 μM, 37° C., absorbance 340 nm; read-out: Ki
# T1 sequence (P08581 974-1390 limits assumed): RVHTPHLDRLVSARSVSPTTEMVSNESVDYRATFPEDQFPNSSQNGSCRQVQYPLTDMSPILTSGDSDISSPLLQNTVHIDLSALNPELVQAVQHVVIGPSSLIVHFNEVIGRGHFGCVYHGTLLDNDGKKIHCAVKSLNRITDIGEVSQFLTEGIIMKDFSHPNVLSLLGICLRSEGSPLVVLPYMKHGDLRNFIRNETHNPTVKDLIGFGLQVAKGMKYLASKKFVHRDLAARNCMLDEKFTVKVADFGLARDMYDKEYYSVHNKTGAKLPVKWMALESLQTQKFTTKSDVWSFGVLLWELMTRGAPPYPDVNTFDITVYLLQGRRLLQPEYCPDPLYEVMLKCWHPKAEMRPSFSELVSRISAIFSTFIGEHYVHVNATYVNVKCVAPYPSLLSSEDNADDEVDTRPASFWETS
row,Structure (SMILES),Ki [nM]
1,"c1cnc2ccc(Cn3nnc4ncc(NC5CCOC5)nc43)cc2c1 (stereo not shown) [Example 145, 1-(quinolin-6-yl-methyl)-N-(tetra-hydrofuran-3-yl)-1H-[1,2,3]tri-azolo[4,5-b]pyra-zin-6-amine]",5
2,"OCCn1cc(-c2cnc3nnn(Cc4ccc5ncncc5c4)c3n2)cn1 [Example 219, 2-[4-(3-Quinazolin-6-ylmethyl-3H-[1,2,3]triazolo[4,5-b]pyrazin-5-yl)-pyrazol-1-yl]-ethanol]",61
3,"CC(c1ccc2c(c1)OCCO2)n1nnc2ncc(Br)nc21 (stereo not shown) [Example 54, 6-Bromo-1-[1-(2,3-dihydro-benzo[1,4]dioxin-6-yl)-ethyl]-1H-[1,2,3]tiazolo[4,5-b]pyrazine]",42
4,"OCc1cccc(-c2cnc3nnn(Cc4ccc5ncccc5c4)c3n2)c1 [Example 37, (3-(3-(quinolin-6-ylmethyl)-3H-[1,2,3]triazolo[4,5-b]pyrazin-5-yl)phenyl)methanol]",4
5,"CN(C)c1cnc2nnn(Cc3ccc4ncccc4c3)c2n1 [Example 159, N,N-dimethyl-1-(quino-lin-6-yl-methyl)-1H-[1,2,3]tri-azolo[4,5-b]pyra-zin-6-amine]",13
6,"O=C(O)c1cnc2nnn(Cc3ccc4ncccc4c3)c2n1 [Example 194, 1-(quinolin-6-yl-methyl)-1H-[1,2,3]tri-azolo[4,5-b]pyra-zine-6-carboxylic acid]",811
7,"CN(CCO)[C@@H]1CCN(c2cnc3nnn(Cc4ccc5ncccc5c4)c3n2)C1 [Example 204, 2-(methyl{(3R)-1-[1-(quino-lin-6-yl-methyl)-1H-[1,2,3]tri-azolo[4,5-b]pyra-zin-6-yl]pyrro-lidin-3-yl}ami-no)ethanol. TFA salt]",37
8,"COCCOc1cnc2nnn(Cc3ccc4ncccc4c3)c2n1 [Example 169, 6-{[6-(2-methoxy-ethoxy)-1H-[1,2,3]tri-azolo[4,5-b]pyra-zin-1-yl]meth-yl}quinoline]",26
9,"OC1CCN(c2cnc3nnn(Cc4ccc5ncccc5c4)c3n2)CC1 [Example 28, 1-(3-(quinolin-6-ylmethyl)-3H-[1,2,3]triazolo[4,5-b]pyrazin-5-yl)piperidin-4-ol]",15
10,"c1cnc2ccc(Cn3nnc4ncc(-c5ccn[nH]5)nc43)cc2c1 [Example 69, 6-[6-(2H-Pyrazol-3-yl)-[1,2,3]triazolo[4,5-b]pyrazin-1-ylmethyl]-quinoline]",3
11,"Brc1cnc2nnn(Cc3ccc4c(c3)CCO4)c2n1 [Example 41, 6-Bromo-1-(2,3-dihydro-benzofuran-5-ylmethyl)-1H-[1,2,3]triazolo[4,5-b]pyrazine]",36
12,"NC(=O)c1cnc2nnn(Cc3ccc4ncccc4c3)c2n1 [Example 162, 1-(quinolin-6-yl-methyl)-1H-[1,2,3]tri-azolo[4,5-b]pyra-zine-6-carbox-amide]",17
13,"COc1cnc2nnn(Cc3ccc4ncccc4c3)c2n1 [Example 193, 6-[(6-methoxy-1H-[1,2,3]tri-azolo[4,5-b]pyra-zin-1-yl)meth-yl]quinoline]",108
14,"COc1ccc(-c2cnc3nnn(Cc4ccc5ncccc5c4)c3n2)cc1 [Example 21, 6-((6-(4-methoxyphenyl)-1H-[1,2,3]triazolo[4,5-b]pyrazin-1-yl)methyl)-quinoline]",4
15,"OC1(C(F)(F)F)CCN([C@@H]2CCN(c3cnc4nnn(Cc5ccc6ncccc6c5)c4n3)C2)CC1 [Example 151, 1-{(3R)-1-[1-(quino-lin-6-yl-methyl)-1H-[1,2,3]tri-azolo[4,5-b]pyra-zin-6-yl]pyrro-lidin-3-yl}-4-(tri-fluoromethyl)pipe-ridin-4-ol]",20
16,"CC(C)(C)OC(=O)N[C@H]1CCCN(c2cnc3nnn(Cc4ccc5ncccc5c4)c3n2)C1 [Example 203, (S)-tert-butyl 1-(3-(quino-lin-6-yl-methyl)-3H-[1,2,3]tri-azolo[4,5-b]pyra-zin-5-yl)pipe-ridin-3-ylcarbamate]",570
17,"c1cnc2ccc(Cn3nnc4ncc(NC5CCOCC5)nc43)cc2c1 [Example 143, 1-(quinolin-6-yl-methyl)-N-(tetra-hydro-2H-py-ran-4-yl)-1H-[1,2,3]tri-azolo[4,5-b]py-razin-6-amine]",9
18,"CC(C)(C)OC(=O)NC1CCN(c2cnc3nnn(Cc4ccc5ncccc5c4)c3n2)CC1 [Example 34, tert-butyl 1-(3-(quinolin-6-ylmethyl)-3H-[1,2,3]triazolo[4,5-b]pyrazin-5-yl)piperidin-4-ylcarbamate]",33
19,"c1cnc2ccc(Cn3nnc4ncc(-c5cnn([C@H]6CCOC6)c5)nc43)cc2c1 [Example 62, 6-{6-[(S)-1-(Tetrahydro-furan-3-yl)-1H-pyrazol-4-yl]-[1,2,3]triazolo[4,5-b]pyrazin-1-ylmethyl}-quinoline]",13
20,"FC1(F)CCN(C2CCN(c3cnc4nnn(Cc5ccc6ncccc6c5)c4n3)C2)C1 (stereo not shown) [Example 149, 6-{[6-(3,3-di-fluoro-1,3′-bi-pyrrolidin-1′-yl)-1H-[1,2,3]tri-azolo[4,5-b]pyra-zin-1-yl]meth-yl}quinoline]",15
21,"COCCNc1cnc2nnn(Cc3ccc4ncccc4c3)c2n1 [Example 71, N-(2-meth-oxyethyl)-1-(quino-lin-6-yl-methyl)-1H-[1,2,3]tri-azolo[4,5-b]py-rain-6-amine]",23
22,NC(=O)C1(N)CCN(c2cnc3nnn(Cc4ccc5ncccc5c4)c3n2)C1 (stereo not shown) [Example 189],187
